One data set relates to L929. As to the kind of experiment: Cytotoxicity against mouse L929 cells after 72 hrs by CellTiter blue staining based microscopic method. The class given is cell-based. To be noted: L929, 72 h.
The nature of data set [1]: Stability of the compound in 1 N NaOH in water/0.1% Triton-X-100. Format: physicochemical. To be noted: buffer.
A short description of data set [2]: Stability of the compound in 1 N HCl in water/0.1% Triton-X-100. The class given is physicochemical. To be noted: buffer.
A short description of data set [3]: Stability of the compound in 0.1 M HCl in MeOH at 0.5 mg after 2 hrs by 1H-NMR spectroscopy. Format: physicochemical.
The subject of the next data set is A549. As to the kind of experiment: Cytotoxicity against human A549 cells after 72 hrs by CellTiter blue staining based microscopic method. To be noted: A549, 72 h. Format: functional, cell-based. On the technique in general: Resazurin is reduced to fluorescent resorufin, in cell work by metabolically active cells.
Data set [4] is described as follows: Stability of the compound in 0.1 M NaOH in MeOH at 0.5 mg after 2 hrs by 1H-NMR spectroscopy. Format: physicochemical.
Data set [5] in a line: Thermal stability of the compound in acetone under sunlight at 60 degreeC after 1 day. To be noted: 24 h. The class given is physicochemical.
The subject of the next data set is LOX IMVI. Briefly: Cytotoxicity against human LOXIMVI cells after 72 hrs by CellTiter blue staining based microscopic method. The class given is functional, cell-based.
Data set [6] is described as follows: Stability of the compound in 0.1 M NaOH in MeOH at 0.5 mg after 14 hrs by 1H-NMR spectroscopy. Format: physicochemical.
A short description of data set [7]: Stability of the compound in 0.1 M HCl in MeOH at 0.5 mg after 8 hrs by 1H-NMR spectroscopy. Format: physicochemical.
The nature of data set [8]: Drug metabolism assessed as initial E/Zdouble-bond isomerization followed by photocyclization in acetone irradiated with UV light at 1 mg after 2 to 72 hrs by 1H-NMR spectroscopy. The class given is physicochemical.
The nature of data set [9]: Stability of the compound in acetone irradiated with UV light at 1 mg after 2 to 72 hrs by 1H-NMR spectroscopy. Format: physicochemical.
For a further data set, the system named is HEK293. As to the kind of experiment: Cytotoxicity against human HEK293 cells after 72 hrs by CellTiter blue staining based microscopic method. The following applies: HEK293, 72 h. Format: cell-based.
Data set [10] is described as follows: Thermal stability of the compound in acetone under sunlight at 60 degreeC after 10 days. The class given is physicochemical. To be noted: 240 h.
Data set [11] is described as follows: Solubility of the compound in water. To be noted: buffer. The class given is physicochemical.
A short description of data set [12]: Stability of the compound in DMSO/EtOH at -20 degreeC assessed as decomposition up to 1 month. Format: physicochemical.
The nature of data set [13]: Drug metabolism assessed as E/Z double-bond isomerization by measuring delta4',5'-Z and delta4',5'-E isomers in acetone under sunlight at 60 degreeC after 10 days. The following applies: 240 h. Format: physicochemical.
Data set [14] can be described thus: Solubility of the compound in water/0.1% Triton-X-100/NP-40. The class given is physicochemical. The following applies: buffer.
Data set [15] is described as follows: Drug metabolism assessed as E/Z double-bond isomerization by measuring delta4',5'-Z and delta4',5'-E isomers in acetone under sunlight at 60 degreeC after 1 day. Format: physicochemical. The following applies: 24 h.
Data set [16] can be described thus: Drug metabolism assessed as compound decomposition in 0.1 M NaOH in MeOH at 0.5 mg after 14 hrs by 1H-NMR spectroscopy. The class given is physicochemical. The following applies: read-out: Drug metabolism.
Data set [17] is described as follows: Drug metabolism assessed as compound decomposition in DMSO/EtOH at -20 degreeC after 3 years. The class given is physicochemical. To be noted: read-out: Drug metabolism.
Data set [18] is described as follows: Drug metabolism assessed as compound decomposition in 0.1 M HCl in MeOH at 0.5 mg after 8 hrs by 1H-NMR spectroscopy. Format: physicochemical. To be noted: read-out: Drug metabolism.
Data set [19] is described as follows: Drug metabolism assessed as compound decomposition in neat at room temperature up to 10 days. The class given is physicochemical. To be noted: read-out: Drug metabolism.

For `CC(/C=C/C(=O)O[C@H]1CCCC(=O)O[C@@H]([C@@H](C)C/C(C)=C/[C@@H](C)[C@H](O)C[C@@H](C)O)C/C=C(\C)C[C@@H]1C)=C\[C@@H](C)C/C=C/C(C)=C/[C@H](O)[C@@H](O)C[C@H](C)O`, the 50% inhibitory concentration (IC50) came out at 53 nM with L929, 77 nM with A549, 29 nM in the data set on LOX IMVI and 3 nM in the data set with HEK293. Also, the Stability result in [1], in [2], in data set [3], in data set [4], in data set [5] and in data set [6] was “Stable” throughout. The Stability entry in [7], in data set [9] and in data set [10] was “Stable” each time. Also, in data set [8], the Drug metabolism result is given as “Metabolite_Notdetected”.

In the case of `CC(/C=C/C(=O)O[C@H]1CCCC(=O)O[C@@H]([C@@H](C)C/C(C)=C/[C@@H](C)[C@H](O)C[C@@H](C)O)C/C=C(\C)C[C@@H]1C)=C\[C@H](C)C/C=C/C(C)=C/[C@H](O)[C@@H](O)C[C@H](C)O`, the IC50 in the data set with L929 amounted to 63 nM; with A549, 400 nM; in the data set on LOX IMVI it was 120 nM; in the data set with HEK293, 83 nM. For the same compound, the Stability result in data set [1], in data set [2], in [3], in data set [4], in data set [5] and in data set [6] was “Stable” each time. In addition, the Stability result in data set [7], in data set [9] and in [10] was “Stable” each time. The Drug metabolism entry in data set [8] was “Metabolite_Notdetected”.

With `CC(=CC(/C)=C/C=C/C(C)=C/[C@H](O)[C@@H](O)C[C@H](C)O)/C=C/C(=O)O[C@H]1CCCC(=O)O[C@@H]([C@@H](C)C/C(C)=C/[C@@H](C)[C@H](O)C[C@@H](C)O)C/C=C(\C)C[C@@H]1C` (mixture of isomers), the solubility result in [11] is “Insoluble”; in data set [14] it was “Soluble”. The Stability result in data set [12], in data set [1], in data set [2], in data set [3], in [4] and in data set [5] was “Stable” throughout. Besides, the Stability result in data set [10] is “Stable”. Moreover, the IC50 in the data set on L929 is 13 nM; with A549, 0.77 nM; in the data set on LOX IMVI, 6.9 nM; with HEK293, 3.2 nM. Also, the Drug metabolism entry in data set [13], in data set [15] and in data set [8] was “Metabolite_Detected” in each case. The degraded at 14 h in data set [16] was 90%. The degraded at 26298 h in [17] was determined as 20%. Moreover, in [18], the degraded at 8 h stood at 80%. Moreover, the degraded at 240 h in data set [19] lay in the range of 20 to 30%.

Usually IC50 stands for the concentration at which inhibition is half-maximal. Lower therefore signals higher potency.

The record behind these values is ChEMBL document CHEMBL3994641, “Design, synthesis, and cytotoxicity of stabilized mycolactone analogs” (Bioorg Med Chem Lett, 2017).
